Data reported in US20130096119A1, “Isoquinolin-3-Ylurea Derivatives” (priority 2010, published 2013).
Values after ≈ are worked out from the molar mass of the structure shown.

Test system: S. pneumoniae ATCC 49619
Assay: Minimal inhibitory concentration (MIC) by microdilution method (CLSI M7-A7)
Assay type: cell-based, Streptococcus pneumoniae
Conditions: Streptococcus pneumoniae, ATCC49619, cation-adjusted Mueller-Hinton Broth supplemented with 3% (v/v) lysed horse blood
Procedure, shortened: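 For S. pneumoniae, cation-adjusted Mueller-Hinton broth carried 3% (v/v) lysed horse blood; MICs (mg/l) were read by CLSI M7-A7 microdilution.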

Row | Compound | MIC [µg/mL]
1 | CCNC(=O)Nc1cc2cc(NCc3cccc(Cn4cncn4)c3)cc(C)c2cn1 [Example 188, 1-{6-[(3-((1H-1,2,4-triazol-1-yl)methyl)benzyl)amino]-8-methylisoquinolin-3-yl}-3-ethylurea] | 8 (≈ 19.3 µM)
2 | CCNC(=O)Nc1cc2c(-c3ccncc3)ccc(-c3ccncc3)c2cn1 [Example 72, 1-(5,8-di-pyridin-4-yl-isoquinolin-3-yl)-3-ethyl-urea] | 2 (≈ 5.41 µM)
3 | CCNC(=O)Nc1cc2cccc(Nc3ccncn3)c2cn1 [Example 151, 1-ethyl-3-[8-(pyrimidin-4-ylamino)-isoquinolin-3-yl]-urea] | 4 (≈ 13 µM)
4 | CCNC(=O)Nc1cc2c(-c3ccncc3)ccc(Nc3cccc(C(=O)OC)c3)c2cn1 [Example 220, 3-[3-(3-ethyl-ureido)-5-pyridin-4-yl-isoquinolin-8-ylamino]-benzoic acid methyl ester] | 16 (≈ 36.2 µM)
5 | CCNC(=O)Nc1cc2cc(-c3cccc(C#N)c3)cc(C)c2cn1 [Example 107, 1-[6-(3-cyano-phenyl)-8-methyl-isoquinolin-3-yl]-3-ethyl-urea] | 1 (≈ 3.03 µM)
6 | CCNC(=O)Nc1cc2c(-c3ccc(C(=O)N(C)C)cc3)ccc(C)c2cn1 [Example 5, 4-[3-(3-ethyl-ureido)-8-methyl-isoquinolin-5-yl]-N,N-dimethyl-benzamide] | 1 (≈ 2.66 µM)
7 | CCNC(=O)Nc1cc2cc(-c3ccccc3C)cc(C)c2cn1 [Example 105, 1-ethyl-3-(8-methyl-6-o-tolyl-isoquinolin-3-yl)-urea] | 8 (≈ 25 µM)
8 | CCNC(=O)Nc1cc2cc(NCc3ccc(NC(C)=O)cc3)cc(C)c2cn1 [Example 137, N-(4-{[3-(3-ethyl-ureido)-8-methyl-isoquinolin-6-ylamino]-methyl}-phenyl)-acetamide] | 8 (≈ 20.4 µM)
9 | CCNC(=O)Nc1cc2cccc(Nc3cccnc3)c2cn1 [Example 145, 1-ethyl-3-[8-(pyridin-3-ylamino)-isoquinolin-3-yl]-urea] | 1 (≈ 3.25 µM)
10 | CCNC(=O)Nc1cc2c(F)c(-c3cccc(NC(C)=O)c3)cc(-c3cccnc3)c2cn1 [Example 113, N-{3-[3-(3-ethyl-ureido)-5-fluoro-8-pyridin-3-yl-isoquinolin-6-yl]-phenyl}-acetamide] | 1 (≈ 2.25 µM)
11 | CCNC(=O)Nc1cc2cccc(COc3ccccn3)c2cn1.Cl [Example 261, 1-ethyl-3-[8-(pyridin-2-yloxymethyl)-isoquinolin-3-yl]-urea hydrochloride] | 8
12 | CCNC(=O)Nc1cc2c(-c3ccncc3)ccc(Nc3cccc(OC)n3)c2cn1 [Example 217, 1-ethyl-3-[8-(6-methoxy-pyridin-2-ylamino)-5-pyridin-4-yl-isoquinolin-3-yl]-urea] | 0.5 (≈ 1.21 µM)
13 | CCNC(=O)Nc1cc2cc(NC(=O)c3ccc(OC)cc3)cc(C)c2cn1 [Example 120, N-[3-(3-ethyl-ureido)-8-methyl-isoquinolin-6-yl]-4-methoxy-benzamide] | 0.125 (≈ 0.33 µM)
14 | CCNC(=O)Nc1cc2c(-c3cccc(CN)c3)ccc(C)c2cn1 [Example 11, 1-[5-(3-(aminomethyl)-phenyl)-8-methyl-isoquinolin-3-yl]-3-ethyl-urea] | 2 (≈ 5.98 µM)
15 | CCNC(=O)Nc1cc2cccc(Nc3cccc(C(=O)OC)n3)c2cn1.Cl [Example 166, 6-[3-(3-ethyl-ureido)-isoquinolin-8-ylamino]-pyridine-2-carboxylic acid methyl ester hydrochloride] | 8
16 | CCNC(=O)Nc1cc2cc(NC(=O)c3cccnc3)cc(C)c2cn1 [Example 119, N-[3-(3-ethyl-ureido)-8-methyl-isoquinolin-6-yl]nicotinamide] | 0.25 (≈ 0.716 µM)
17 | CCNC(=O)Nc1cc2cccc(COc3ccc(C)cn3)c2cn1.Cl [Example 257, 1-ethyl-3-[8-(5-methyl-pyridin-2-yloxymethyl)-isoquinolin-3-yl]-urea hydrochloride] | 8
18 | CCNC(=O)Nc1cc2cccc(Nc3ccc(O)cc3)c2cn1 [Example 175, 1-ethyl-3-[8-(4-hydroxy-phenylamino)-isoquinolin-3-yl]-urea] | 16 (≈ 49.6 µM)
19 | CCNC(=O)Nc1cc2cc(-c3cccc(C(=O)OCC)c3)cc(C)c2cn1 [Example 84, 3-[3-(3-ethyl-ureido)-8-methyl-isoquinolin-6-yl]-benzoic acid ethyl ester] | 0.5 (≈ 1.32 µM)
20 | CCNC(=O)Nc1cc2c(-c3ccnc(N)c3)ccc(Nc3cccnc3)c2cn1 [Example 233, 1-[5-(2-amino-pyridin-4-yl)-8-(pyridin-3-ylamino)-isoquinolin-3-yl]-3-ethyl-urea] | 0.5 (≈ 1.25 µM)
21 | CCNC(=O)Nc1cc2cc(-c3cncc(S(C)(=O)=O)c3)cc(C)c2cn1 [Example 103, 1-ethyl-3-[6-(5-methanesulfonyl-pyridin-3-yl)-8-methyl-isoquinolin-3-yl]-urea] | 0.5 (≈ 1.3 µM)
22 | CCNC(=O)Nc1cc2cc(NCc3cccc(OCCO)c3)cc(C)c2cn1.Cl [Example 129, 1-ethyl-3-{6-[3-(2-hydroxy-ethoxy)-benzylamino]-8-methyl-isoquinolin-3-yl}-urea hydrochloride] | 16

Row | Compound | MIC [µg/mL]
23 | CCNC(=O)Nc1cc2cccc(Nc3cc(OC)ccn3)c2cn1.Cl [Example 160, 1-ethyl-3-[8-(4-methoxy-pyridin-2-ylamino)-isoquinolin-3-yl]-urea hydrochloride] | 2
24 | CCNC(=O)Nc1cc2c(F)ccc(NCc3ccccc3)c2cn1 [Example 56, 1-(8-benzylamino-5-fluoro-isoquinolin-3-yl)-3-ethyl-urea] | 8 (≈ 23.6 µM)
25 | CCNC(=O)Nc1cc2cccc(Nc3cncc(OC)c3)c2cn1 [Example 177, 1-ethyl-3-[8-(5-methoxy-pyridin-3-ylamino)-isoquinolin-3-yl]-urea] | 2 (≈ 5.93 µM)
26 | CCNC(=O)Nc1cc2cccc(Cn3ccnc3C(=O)O)c2cn1 [Example 294, 1-[3-(3-ethyl-ureido)-isoquinolin-8-ylmethyl]-1H-imidazole-2-carboxylic acid] | 4 (≈ 11.8 µM)
27 | CCNC(=O)Nc1cc2cc(-c3cccc(O)c3)cc(C)c2cn1 [Example 20, 1-ethyl-3-[6-(3-hydroxy-phenyl)-8-methyl-isoquinolin-3-yl]-urea] | 0.5 (≈ 1.56 µM)
28 | CCNC(=O)Nc1cc2cccc(Nc3ccc(C(=O)N(C)C)cc3)c2cn1.Cl [Example 203, 4-[3-(3-ethyl-ureido)-isoquinolin-8-ylamino]-N,N-dimethyl-benzamide hydrochloride] | 2
29 | CCNC(=O)Nc1cc2cc(-c3ccncc3)cc(C)c2cn1 [Example 21, 1-ethyl-3-(8-methyl-6-pyridin-4-yl-isoquinolin-3-yl)-urea] | 1 (≈ 3.26 µM)
30 | CCNC(=O)Nc1cc2cc(-c3cncc(C(=O)OC)c3)cc(C)c2cn1 [Example 87, 5-[3-(3-ethyl-ureido)-8-methyl-isoquinolin-6-yl]-nicotinic acid methyl ester] | 8 (≈ 22 µM)
31 | CCNC(=O)Nc1cc2c(-c3ccc(CO)nc3)ccc(C)c2cn1 [Example 8, 1-ethyl-3-[5-(6-hydroxymethyl-pyridin-3-yl)-8-methyl-isoquinolin-3-yl]-urea] | 4 (≈ 11.9 µM)
32 | CCNC(=O)Nc1cc2c(-c3ccc(CO)cc3)ccc(Nc3cccc(C(=O)O)c3)c2cn1 [Example 249, 3-[3-(3-ethyl-ureido)-5-(4-hydroxymethyl-phenyl)-isoquinolin-8-ylamino]-benzoic acid] | 0.5 (≈ 1.1 µM)
33 | CCNC(=O)Nc1cc2cccc(Nc3ccc(C(=O)OC)cc3)c2cn1 [Example 179, 4-[3-(3-ethyl-ureido)-isoquinolin-8-ylamino]-benzoic acid methyl ester] | 4 (≈ 11 µM)
34 | CCNC(=O)Nc1cc2c(-c3cccc(CN)c3)ccc(Nc3cccnc3)c2cn1 [Example 232, 1-(5-(3-(aminomethyl)phenyl)-8-(pyridin-3-ylamino)isoquinolin-3-yl)-3-ethylurea] | 2 (≈ 4.85 µM)
35 | CCNC(=O)Nc1cc2cccc(Nc3cnccn3)c2cn1 [Example 148, 1-ethyl-3-[8-(pyrazin-2-ylamino)-isoquinolin-3-yl]-urea] | 2 (≈ 6.49 µM)
36 | Cc1ccc(-c2ccncc2)c2cc(NC(=O)NCCF)ncc12 [Example 138, 1-(2-fluoro-ethyl)-3-(8-methyl-5-pyridin-4-yl-isoquinolin-3-yl)-urea] | 1 (≈ 3.08 µM)
37 | CCNC(=O)Nc1cc2c(F)c(-c3ccc(S(N)(=O)=O)cc3)cc(Cl)c2cn1 [Example 111, 4-[8-chloro-3-(3-ethyl-ureido)-5-fluoro-isoquinolin-6-yl]-benzenesulfonamide] | 1 (≈ 2.36 µM)
38 | CCNC(=O)Nc1cc2cccc(Nc3ccc(C#N)cc3)c2cn1 [Example 174, 1-[8-(4-cyano-phenylamino)-isoquinolin-3-yl]-3-ethyl-urea] | 2 (≈ 6.04 µM)
39 | CCNC(=O)Nc1cc2cccc(Nc3cccc(C(=O)NCc4ccccc4)c3)c2cn1.Cl [Example 201, N-benzyl-3-[3-(3-ethyl-ureido)-isoquinolin-8-ylamino]-benzamide hydrochloride] | 2
40 | CCNC(=O)Nc1cc2cccc(Nc3cccc(C(=O)NC)c3)c2cn1.Cl [Example 200, 3-[3-(3-ethyl-ureido)-isoquinolin-8-ylamino]-N-methyl-benzamide hydrochloride] | 1
41 | CCNC(=O)Nc1cc2c(-c3ccc(NC(=O)OC)cc3)ccc(C)c2cn1 [Example 65, {4-[3-(3-ethyl-ureido)-8-methyl-isoquinolin-5-yl]-phenyl}-carbamic acid methyl ester] | 2 (≈ 5.28 µM)
42 | CCNC(=O)Nc1cc2c(-c3cccc(S(N)(=O)=O)c3)ccc(C)c2cn1 [Example 13, 3-[3-(3-ethyl-ureido)-8-methyl-isoquinolin-5-yl]-benzenesulfonamide] | 2 (≈ 5.2 µM)
43 | CCNC(=O)Nc1cc2cccc(Nc3cccc(CC(=O)N(C)C)c3)c2cn1.Cl [Example 211, 2-{3-[3-(3-ethyl-ureido)-isoquinolin-8-ylamino]phenyl}-N,N-dimethyl-acetamide hydrochloride] | 4

Same assay, conditions: cation-adjusted Mueller-Hinton Broth supplemented with 3% (v/v) lysed horse blood

Row | Compound | MIC for S. pneumoniae ATCC 49619 [µg/mL]
44 | CCNC(=O)Nc1cc2cc(C(NC(C)=O)c3ccccc3)cc(C)c2cn1 (stereo not drawn) [Example 17, N-{1-[3-(3-ethyl-ureido)-8-methyl-isoquinolin-6-yl]-benzyl}-acetamide] | 1
45 | N-{1-[3-(3-ethyl-ureido)-8-methyl-isoquinolin-6-yl]-phenyl}-acetamide [Example 18] | 0.25
